Laboratory results: ChEMBL document CHEMBL1148179, “Structural revisions of some non-adjacent bis-tetrahydrofuran annonaceous acetogenins” (1993)
Converted amounts (≈) assume the structure as drawn.

Assays:
Type in all cases: functional
HT-29 = test: Cytotoxicity against human HT-29 cells; settings: read-out: ED50 (the source's name)
MCF7 = test: Cytotoxicity against human MCF7 cells; settings: read-out: ED50 (the source's name)
A549 = test: Cytotoxicity against human A549 cells

| Compound | EC50 (HT-29) [µg/mL] | EC50 (MCF7) [µg/mL] | ED50 (A549) |
| --- | --- | --- | --- |
| CCCCCC[C@H](O)CCC[C@H](O)[C@H]1CC[C@H]([C@H]2CC(O)[C@H]([C@H](O)CCCCCCCCCCCCC3=C[C@H](C)OC3=O)O2)O1 (stereo partly specified) [ANNONIN XVI] | 1.42 (≈ 2.22 µM) | 1.46 (≈ 2.29 µM) | <1 ×10⁻⁸ ug/ml |
| COc1cccc2c1C(=O)c1c(O)c3c(c(O)c1C2=O)C[C@@](O)(C(=O)CO)C[C@@H]3O[C@H]1C[C@H](N)[C@H](O)[C@H](C)O1 [DOXORUBICIN] | 0.0013 (≈ 0.00239 µM) | 0.0913 (≈ 0.168 µM) | 2.08 ×10⁻⁴ ug/ml |
